Reference: PMC6694155, “PTPσ inhibitors promote hematopoietic stem cell regeneration” (Nature Communications, 2019)
“And” between values parts separate entries of the source, which are not always exact repeats. Equal values may be shown once.

What was measured:
BM KSL cells [1] = assay: Cytokine analysis in vitro (BM KSL cell culture supernatants); assay type: cell-based, mouse; design: PTN: unit not given beside the values; IL-5 / IL-6 / IL-9 / IL-10 / IL-12(p40) / IL-12(p70) / IL-13 / IL-17 / IP-10 / CXCL12 / EGF / DKK / G-CSF / Eotaxin / GM-CSF / KC / MCP-1 / MIP-1a / M-CSF / MIP-2 / MIG / RANTES / VEGF / TNF-a / IFN-g / IL-1a / IL-1b / IL-2 / IL-4 / IL-3: unit not given here; conditions: for IFN-g / IL-1a / IL-1b / IL-2 / IL-3 / IL-4 / IL-5 / IL-6 / IL-9 / IL-10 / IL-12(p40) / IL-12(p70) / IL-13 / IL-17 / IP-10: Supplementary Figure 6a; for CXCL12 / DKK / EGF / Eotaxin / G-CSF / GM-CSF / KC / M-CSF / MCP-1 / MIG / MIP-1a / MIP-2 / PTN / RANTES / TNF-a / VEGF: Supplementary Figure 6b
Description: For in vitro cytokine measurements, 3.5 × 10^4 BM KSL cells were irradiated with 300 cGy and cultured in TSF media with and without 1 μg/mL DJ001. Non-irradiated KSL cells were cultured in TSF media with and without 1 μg/mL DJ001. At 12 h of culture, culture supernatants were collected for analysis. For in vivo cytokine measurements, adult C57BL/6 mice were irradiated with 750 cGy TBI and then treated with 5 mg/kg of DJ001 or vehicle, subcutaneously, from day + 1 to day + 5. Non-irradiated mice received the identical regimen of 5 mg/kg DJ001 or vehicle for 5 days. Mice were killed and BM cells were collected into IMDM. Cells were pelleted and the BM supernatant was collected and sent to the UCLA Immune Assessment Core for cytokine analysis. All samples were tested on a mouse 32-plex Cytokine/Chemokine panel platform from EMD Milipore using Luminex’s xMAP® immunoassay technology (Luminex, Inc.). In addition, the following cytokine levels were assessed by solid-phase ELISA assay according to the manufacturer’s description: CXCL12 (R&D Systems), SCF (R&D Systems), Thrombopoietin (TPO) (R&D Systems), PTN (Biomatik), DKK1 (R&D Systems), and EGF (R&D Systems).

BM KSL cells [2] = assay: Cell cycle analysis (Ki67/7AAD) of BM KSL cells; assay type: cell-based, mouse; design: G0 / G1 / G2SM: unit not given here
Description: Eight- to ten-week-old female C57BL/6 mice were irradiated with 500 cGy TBI followed by subcutaneous injections of 5 mg/kg DJ001 or vehicle, or 5 mg/kg DJ001 plus 40 mg/kg EHT1864. Twenty four hours after irradiation, mice were killed to collect BM cells for Annexin V apoptosis analysis. BM cells were stained with APC-Cy7-conjugated anti-mouse Sca1 (BD Biosciences, #560654, 1:100), PE-conjugated anti-ckit (BD Biosciences, #553355, 1:100), and V450 lineage cocktail (BD Biosciences, #561301, 1:10) antibodies for 30 min at 4 °C. Cells were then resuspended in 1× Annexin V binding buffer and then stained with FITC-conjugated anti-Annexin V antibody (BD Biosciences, #556547,1:50) and 7AAD antibody (BD Biosciences, #559925, 1:40)[68]. For in vitro human BM cell apoptosis assays, isolated human BM CD34^+ cells were plated into 96-well plates and then irradiated with 300 cGy. Immediately after irradiation, cells were treated with 5 μg/mL DJ001 or vehicle for 24 h and then collected for Annexin V cell apoptosis analysis. For cell cycle analysis, BM KSL cells were irradiated at 300 cGy and then treated with 1 μg/mL DJ001 or vehicle for 36 h. Subsequently, cells were resuspended in 200 μL of PBS, fixed with 1 mL of ice-cold fixation solution (0.25% Saponin, 2.5% PFA, 2% fetal calf serum (FCS) in PBS), and incubated for 30 min on ice. Cells were washed in Saponin buffer (0.25% Saponin, 2% FCS in PBS) and resuspended in 200 μL of Saponin buffer containing 20 μL of FITC-conjugated anti-Ki67 antibody (BD Biosciences, #556026, 1:10) and 1 μL of RNase (Qiagen, #19101, 100 mg/mL). After 30 min of incubation, cells were washed in Saponin buffer and resuspended for flow analysis in 200 μL of Saponin buffer containing 5 μL 7AAD (BD Biosciences, #559925, 1:40).

[3] = 36 h following 300 cGy, 1 μg/mL DJ001
[4] = 36 h following 300 cGy, 1 µg/mL DJ001, 6 µg/mL EHT1864, 240 ng/mL SU9516
[5] = cell cycle phase, Supplementary Figure 7h

With `O=C(/C=C\Nc1cccc([N+](=O)[O-])c1)c1ccccc1` [DJ001, (Z)-3-((3-nitrophenyl)amino)-1-phenylprop-2-en-1-one] the IFN-g (BM KSL cells [1]; 300cGy) was 0.77, the IL-1a (BM KSL cells [1]; 300cGy) was 2.07 and 2.11 and the IL-1b (BM KSL cells [1]; 300cGy) was 1.39. It also gave an IL-2 (BM KSL cells [1]; 300cGy) of 2.9, an IL-3 (BM KSL cells [1]; 300cGy) of 1 and an IL-4 (BM KSL cells [1]; 300cGy) of 0.44. The IL-5 (BM KSL cells [1]; 300cGy) was 2.67, the IL-6 (BM KSL cells [1]; 300cGy) was 0.77 and 1.04 and the IL-9 (BM KSL cells [1]; 300cGy) was 36.91. For the same compound, the IL-10 (BM KSL cells [1]; 300cGy) was 2.29, the “IL-12(p40)” value (BM KSL cells [1]; 300cGy) was 1.77 and 1.44 and 2.31 and the “IL-12(p70)” value (BM KSL cells [1]; 300cGy) was 3.42. For the same compound, the IL-13 (BM KSL cells [1]; 300cGy) was 9.36, the IL-17 (BM KSL cells [1]; 300cGy) was 1.92 and the IP-10 (BM KSL cells [1]; 300cGy) was 2.77. It also gave a CXCL12 (BM KSL cells [1]; 300cGy) of 0, a DKK (BM KSL cells [1]; 300cGy) of 0 and an EGF (BM KSL cells [1]; 300cGy) of 0. It also gave an Eotaxin (BM KSL cells [1]; 300cGy) of 2.69, a G-CSF (BM KSL cells [1]; 300cGy) of 0.01 and a GM-CSF (BM KSL cells [1]; 300cGy) of 5.03. The KC (BM KSL cells [1]; 300cGy) was 1.04, the M-CSF (BM KSL cells [1]; 300cGy) was 1.85 and 2.24 and the MCP-1 (BM KSL cells [1]; 300cGy) was 4.52. For the same compound, the MIG (BM KSL cells [1]; 300cGy) was 3.11, the MIP-1a (BM KSL cells [1]; 300cGy) was 5.42 and 8.81 and the MIP-2 (BM KSL cells [1]; 300cGy) was 16. For the same compound, the PTN (BM KSL cells [1]; 300cGy) was 10.6601 and 9.687 and 10.9496, the RANTES (BM KSL cells [1]; 300cGy) was 3.97 and the TNF-a (BM KSL cells [1]; 300cGy) was 4.73. For the same compound, the VEGF (BM KSL cells [1]; 300cGy) was 1.18, the “LIX levels following irradiation” value (BM KSL cells [1]; BM KSL cells, 12 h after 300 cGy, 1 μg/mL DJ001) was “decreased LIX levels” and the “other cytokines in vitro” value (BM KSL cells [1]; BM KSL cells, 12 h culture, 1 μg/mL DJ001) was “no effects on any other cytokines”. It also gave an IFN-g (BM KSL cells [1]; NI (non-irradiated)) of 0.77, an IL-1a (BM KSL cells [1]; NI (non-irradiated)) of 2.07 and an IL-1b (BM KSL cells [1]; NI (non-irradiated)) of 1.39. For the same compound, the IL-2 (BM KSL cells [1]; NI (non-irradiated)) was 2.9, the IL-3 (BM KSL cells [1]; NI (non-irradiated)) was 1 and the IL-4 (BM KSL cells [1]; NI (non-irradiated)) was 0.44. The IL-5 (BM KSL cells [1]; NI (non-irradiated)) was 2.67, the IL-6 (BM KSL cells [1]; NI (non-irradiated)) was 0.77 and 1.04 and the IL-9 (BM KSL cells [1]; NI (non-irradiated)) was 36.91. The IL-10 (BM KSL cells [1]; NI (non-irradiated)) was 2.29, the “IL-12(p40)” value (BM KSL cells [1]; NI (non-irradiated)) was 1.13 and 2.12 and 1.6 and the “IL-12(p70)” value (BM KSL cells [1]; NI (non-irradiated)) was 3.42. For the same compound, the IL-13 (BM KSL cells [1]; NI (non-irradiated)) was 9.36, the IL-17 (BM KSL cells [1]; NI (non-irradiated)) was 1.92 and the IP-10 (BM KSL cells [1]; NI (non-irradiated)) was 2.77. For the same compound, the CXCL12 (BM KSL cells [1]; NI (non-irradiated)) was 0, the DKK (BM KSL cells [1]; NI (non-irradiated)) was 0 and the EGF (BM KSL cells [1]; NI (non-irradiated)) was 0. For the same compound, the Eotaxin (BM KSL cells [1]; NI (non-irradiated)) was 2.69, the G-CSF (BM KSL cells [1]; NI (non-irradiated)) was 0.01 and the GM-CSF (BM KSL cells [1]; NI (non-irradiated)) was 5.03. The KC (BM KSL cells [1]; NI (non-irradiated)) was 1.04, the M-CSF (BM KSL cells [1]; NI (non-irradiated)) was 1.85 and 2.71 and the MCP-1 (BM KSL cells [1]; NI (non-irradiated)) was 4.52. For the same compound, the MIG (BM KSL cells [1]; NI (non-irradiated)) was 3.11, the MIP-1a (BM KSL cells [1]; NI (non-irradiated)) was 5.42 and 8.81 and the MIP-2 (BM KSL cells [1]; NI (non-irradiated)) was 16. For the same compound, the PTN (BM KSL cells [1]; NI (non-irradiated)) was 11.0625 and 10.3876 and 11.8896, the RANTES (BM KSL cells [1]; NI (non-irradiated)) was 3.97 and the TNF-a (BM KSL cells [1]; NI (non-irradiated)) was 4.73. The VEGF (BM KSL cells [1]; NI (non-irradiated)) was 1.18, the “percentage of KSL cells in G2/S/M phase vs control” value (BM KSL cells [2]; 36 h following 300 cGy) was “significantly increased the percentage of KSL cells in G2/S/M phase” and the “percentages of KSL cells in G0, per replicate (Figure 4a)” value (BM KSL cells [2]; [3]) was 10.898% and 7.091% and 6.413% and 9.19% and 8.538% and 7.981% and 5.757%. For the same compound, the “percentages of KSL cells in G1, per replicate (Figure 4a)” value (BM KSL cells [2]; [3]) was 51.766% and 62.582% and 57.686% and 51.047% and 60.936% and 51.069% and 57.668%, the “percentages of KSL cells in G2SM, per replicate (Figure 4a)” value (BM KSL cells [2]; [3]) was 36.781% and 29.964% and 35.471% and 38.731% and 30% and 39.75% and 36.236% and the “percentages of BM cells in G0, per replicate (Figure 4d bottom left panel)” value (BM KSL cells [2]; [4]) was 12% and 10% and 8% and 4% and 11%. The “percentages of BM cells in G1, per replicate (Figure 4d bottom center panel)” value (BM KSL cells [2]; [4]) was 52% and 54% and 51% and 48%, the “percentages of BM cells in G2/S/M, per replicate (Figure 4d bottom right panel)” value (BM KSL cells [2]; [4]) was 35% and 40% and 41% and 39% and the G0 (BM KSL cells [2]; [5]) was 17.593 and 13.329 and 15.794 and 18.75 and 23.139 and 16.263 and 18.5. The G1 (BM KSL cells [2]; [5]) was 51.409 and 55.557 and 49.648 and 46.611 and 42.434 and 51.122 and 52.817 and the G2SM (BM KSL cells [2]; [5]) was 27.738 and 29.087 and 32.369 and 30.422 and 28.183 and 29.707 and 25.745.
